Antifungal activity and MIC data for two compounds are collected here from patent publication US5196327A, “Process for producing antifungal fermentation products and compositions thereof” (Merck & Co., Inc., priority 1991, dated 1993).

≈ marks a conversion by molar mass, not a printed value. Read-outs that look alike come from different tables or passages of the source.

In assay [1] the test system is panel of representative yeasts, filamentous fungi (molds) and bacteria. Put plainly: Antifungal disc diffusion assay, panel. The conditions noted are these: panel of organisms. The format is cell-based. From the text:
(§1) The antifungal activity of the compounds may be detected in an antifungal assay employing disc diffusion methods against a panel of representative yeasts, filamentous fungi (molds) and bacteria.
(§2) The filamentous fungi used in the assay are Cochliobolus miyabeanus, Penicillium sp. (three strains), Aspergillus niger, Trichoderma sp., Phoma sp., Trichoderma lignorum, Fusarium oxysporum, Ustilago maydis, Ceratocystis ulmi, Alternaria solani, Verticillium serrae, Botrytis allii, Scopulariopsis communis, Cephalosporium sp., Cercospora beticola, […], Rhizomucor miehei, Aspergillus flavus and Aspergillus fumigatus.
(§3) The yeasts employed in the assay are Saccharomyces cerevisiae, Candida albicans, […], Candida tropicalis, Candida rugosa, Brettanomyces bruxellensis, Torulospora hansenii, Candida quilliermondi, Candida pseudotropicalis, Torulopsis glabrata, Cryptococcus albidus, and Cryptococcus laurentii.
The bacteria employed in the assay are Streptomyces sp., Acholeplasma laidlawii and Bacillus subtilis.
(§4) For carrying out the assay, seeded assay plates are prepared in the following manner according to the type of assay strain.
(§5) Inocula for filamentous fungi are prepared by scraping the surface of stock plates maintained on potato dextrose agar with a moistened sterile dacron swab. The spores and mycelia are then suspended in 10 milliliters of sterile potato dextrose broth and adjusted to 70 percent transmission at 660 nm.
(§6) Inocula for yeasts and bacterial strains are prepared from overnight broth cultures then diluted into potato dextrose agar to a final concentration of either 40 percent or 70 percent transmission at 660 nm.
When the organism is Acholephasma laidlawii, it is suspended in brain heart infusion broth supplemented with 2.5 percent yeast extract and 20 percent heat inactivated horse serum, and the broth adjusted to a final concentration of 60 percent transmission at 660 nm. […]
(§7) Following incubation, the inhibition zones are measured and recorded. […]

In assay [2] the test system is Ustilago maydis. Put plainly: Antifungal disc diffusion assay. The class given is cell-based.
Source text: as §1, §2, §4, §5
(§8) The seeded agar media thus prepared are dispensed into petri dishes for assays (11 milliliters per dish).
The samples to be tested for production of antifungal agent are applied to 6.2 mm. filter paper discs (25 microliter/disc) and air dried at 24° C. […]
as §7
For orientation: In agar diffusion tests the substance spreads into inoculated agar from a disc or well.

In assay [3] the test system is Candida albicans (five strains). Put plainly: Antifungal disc diffusion assay. The conditions noted are these: five strains of Candida albicans. The format is cell-based.
Source text: as §1, §3, §4, §6
For three strains of Candida albicans and one strain of Saccharomyces cerevisiae, sterile saline is employed in place of potato dextrose broth. Assay plates are prepared by diluting the inoculum into appropriate molten agar medium, cooled to 45° C. to obtain a final concentration of 4 percent.
The seeded agar media thus prepared are dispensed into petri dishes for assays (11 milliliters per dish). […]
as §7

Assay [4] deals with Candida tropicalis. Put plainly: Antifungal disc diffusion assay. The class given is cell-based.
Source text: as §1, §3, §4, §6, §8
(§9) The samples to be tested for production of antifungal agent are applied to 6.2 mm. filter paper discs (25 microliter/disc) and air dried at 24° C. When the sample to be tested is crude broth, it may be centrifuged prior to application. The discs bearing the material to be tested are then applied employing sterile conditions to the seeded assay plates and the samples rewet with 25 percent sterile aqueous dimethylsulfoxide (25 μl/disc). The assay plates are then incubated at either 28° C. or 37° C. for 24 hours. In one of the assays for Bacillus subtilis, the sample is applied to a disc previously impregnated with 4M potassium chloride at 25 μl/disc and then air dried.
(§10) Following incubation, the inhibition zones are measured and recorded. The measurements are made from the extreme edge where growth differs from the background zone. The growths are noted as to appearance as fuzzy edge and clear center, hazy throughout, slightly hazy, very hazy or ringed.

In assay [5] the test system is Cryptococcus albidus. Put plainly: Antifungal disc diffusion assay. The class given is cell-based.
Source text: as §1, §3, §4, §6, §8, §9, §10

Assay [6] deals with Torulospora hansenii. Put plainly: Antifungal disc diffusion assay. The format is cell-based.
Source text: as §1, §3, §4, §6, §8, §9, §10

For assay [7], the system named is Aspergillus niger. Put plainly: Antifungal disc diffusion assay. The class given is cell-based.
Source text: as §1, §2, §3, §4
Inocula for filamentous fungi are prepared by scraping the surface of stock plates maintained on potato dextrose agar with a moistened sterile dacron swab. […]
as §7

The test system of assay [8] is Aspergillus fumigatus MF4839. Put plainly: Agar dilution assay, MIC. The class given is cell-based. The conditions noted are these: strain MF4839; yeast nitrogen base dextrose agar; read-out: Minimum Inhibitory Concentration. The method, then: (§11) In separate operations, in vitro antifungal activity determinations were carried out with Compound IB and with Compound IC against a panel of filamentous and yeast-like fungi employing yeast nitrogen base dextrose agar medium. In carrying out the assay, the compound to be tested was solubilized in 10 percent dimethyl sulfoxide (DMSO) supplemented with one drop of Tween 20. Two-fold dilutions were made with sterile distilled water/10% DMSO to obtain final concentrations in the agar dilution assay plates ranging from 64 to 0.06 μg/ml in the operation with Compound IB and from 128 to 0.06 μg/ml in the operation with Compound IC.
(§12) Nystatin (commercially available antifungal agent) was used as a positive antifungal control.
(Agar dilution tests growth on a series of plates holding different concentrations.)

For assay [9], the system named is Ca. guilliermondi MY1019. Put plainly: Agar dilution assay, MIC. Conditions: strain MY1019; yeast nitrogen base dextrose agar; read-out: Minimum Inhibitory Concentration. The class given is cell-based. On the procedure: as §11, §12
Assay [10] relates to Ca. krusei MY1020. Put plainly: Agar dilution assay, MIC. The class given is cell-based. Conditions: strain MY1020; yeast nitrogen base dextrose agar; read-out: Minimum Inhibitory Concentration. On the procedure: as §11, §12
Assay [11] has as its system Ca. parapsilosis MY1009. Put plainly: Agar dilution assay, MIC. The format is cell-based. The conditions noted are these: strain MY1009; yeast nitrogen base dextrose agar; read-out: Minimum Inhibitory Concentration. The method, then:
as §11, §12

The test system of assay [12] is Ca. parapsilosis MY1010. Put plainly: Agar dilution assay, MIC. The conditions noted are these: strain MY1010; yeast nitrogen base dextrose agar; read-out: Minimum Inhibitory Concentration. The class given is cell-based. On the procedure:
as §11, §12

For assay [13], the system named is Ca. stellatoidea MY1017. Put plainly: Agar dilution assay, MIC. The class given is cell-based. The conditions noted are these: strain MY1017; yeast nitrogen base dextrose agar; read-out: Minimum Inhibitory Concentration. The method, then:
as §11, §12

Assay [14] concerns Candida albicans MY1058. Put plainly: Agar dilution assay, MIC. The class given is cell-based. Conditions: strain MY1058; yeast nitrogen base dextrose agar; read-out: Minimum Inhibitory Concentration. On the procedure:
as §11, §12

The test system of assay [15] is Cryptococcus neoformans MY1051. Put plainly: Agar dilution assay, MIC. The conditions noted are these: strain MY1051; yeast nitrogen base dextrose agar; read-out: Minimum Inhibitory Concentration. The format is cell-based. On the procedure: as §11, §12
Assay [16] concerns Penicillium italicum MF2819. Put plainly: Agar dilution assay, MIC. The format is cell-based. The conditions noted are these: strain MF2819; yeast nitrogen base dextrose agar; read-out: Minimum Inhibitory Concentration. On the procedure:
as §11, §12

Assay [17] concerns Torulopsis glabrata MY1059. Put plainly: Agar dilution assay, MIC. The format is cell-based. The conditions noted are these: strain MY1059; yeast nitrogen base dextrose agar; read-out: Minimum Inhibitory Concentration. The method, then: as §11, §12
In assay [18] the test system is Cr. neoformans MY1146. Put plainly: Agar dilution assay, MIC. The format is cell-based, Cryptococcus neoformans. Conditions: strain MY1146; yeast nitrogen base dextrose agar; read-out: Minimum Inhibitory Concentration. The method, then: as §11, §12
The test system of assay [19] is Ca. albicans MY0992. Put plainly: Agar dilution assay, MIC. The class given is cell-based, Candida albicans. The conditions noted are these: strain MY0992; yeast nitrogen base dextrose agar; read-out: Minimum Inhibitory Concentration. The method, then:
as §11, §12

In assay [20] the test system is Ca. albicans MY1013. Put plainly: Agar dilution assay, MIC. The class given is cell-based, Candida albicans. Conditions: strain MY1013; yeast nitrogen base dextrose agar; read-out: Minimum Inhibitory Concentration. On the procedure:
as §11, §12

The test system of assay [21] is Ca. albicans MY1029. Put plainly: Agar dilution assay, MIC. The class given is cell-based, Candida albicans. The conditions noted are these: strain MY1029; yeast nitrogen base dextrose agar; read-out: Minimum Inhibitory Concentration. On the procedure:
as §11, §12

The subject of assay [22] is Ca. albicans MY1055. Put plainly: Agar dilution assay, MIC. The format is cell-based, Candida albicans. The conditions noted are these: strain MY1055; yeast nitrogen base dextrose agar; read-out: Minimum Inhibitory Concentration. On the procedure: as §11, §12
Assay [23] deals with Ca. tropicalis MY1011. Put plainly: Agar dilution assay, MIC. The format is cell-based, Candida tropicalis. The conditions noted are these: strain MY1011; yeast nitrogen base dextrose agar; read-out: Minimum Inhibitory Concentration. On the procedure: as §11, §12
The subject of assay [24] is Ca. tropicalis MY1012. Put plainly: Agar dilution assay, MIC. The format is cell-based, Candida tropicalis. Conditions: strain MY1012; yeast nitrogen base dextrose agar; read-out: Minimum Inhibitory Concentration. The method, then:
as §11, §12

The test system of assay [25] is Ca. pseudotropicalis MY1040. Put plainly: Agar dilution assay, MIC. The class given is cell-based, Candida pseudotropicalis. Conditions: strain MY1040; yeast nitrogen base dextrose agar; read-out: Minimum Inhibitory Concentration. The method, then: as §11, §12
Assay [26] has as its system Ca. rugosa MY1022. Put plainly: Agar dilution assay, MIC. The format is cell-based, Candida rugosa. Conditions: strain MY1022; yeast nitrogen base dextrose agar; read-out: Minimum Inhibitory Concentration. On the procedure: as §11, §12
Assay [27] has as its system Sac. cerevisiae MY1027. Put plainly: Agar dilution assay, MIC. The class given is cell-based, Saccharomyces cerevisiae. The conditions noted are these: Saccharomyces cerevisiae; strain MY1027; yeast nitrogen base dextrose agar; read-out: Minimum Inhibitory Concentration. On the procedure: as §11, §12
Assay [28] has as its system A. flavus MF0383. Put plainly: Agar dilution assay, MIC. The class given is cell-based, Aspergillus flavus. Conditions: strain MF0383; yeast nitrogen base dextrose agar; read-out: Minimum Inhibitory Concentration. On the procedure: as §11, §12

For the compound `CCCCCCC(O)CCCCCCC=CC(O)C(O)C(O)C(NC(=N)N)C(=O)O` (stereo not shown) [Compound IA, 2-guanidino-3,4,5,14-tetrahydroxy-6-eicosenoic acid], the antifungal activity entry in [1] was “good activity against almost all of the organisms”; in assay [1] (listed as I-A), “activity against a number of fungal organisms”; in assay [2], “good activity”; in [2] (listed as I-A), “especially good activity”; in assay [3], “good activity”; in assay [4], “good activity”. Also, the antifungal activity result in assay [5], in assay [6] and in [7] was “good activity” throughout.
As to `CCCCCCC(O)CCCCCCC=CC(O)C(O)C(O)C(N)C(=O)O` (stereo not shown) [Compound IB, 2-amino-3,4,5,14-tetrahydroxy-6-eicosengoic acid], the MIC is 64 µg/mL (≈ 164 µM) in [8]; greater than 64 µg/mL in assay [9]; greater than 64 µg/mL in [10]; 32 µg/mL (≈ 82.1 µM) in assay [11]; 2 µg/mL (≈ 5.13 µM) in [12]; 16 µg/mL (≈ 41.1 µM) in assay [13]. Moreover, the MIC was 16 µg/mL (≈ 41.1 µM) in assay [14]; 2 µg/mL (≈ 5.13 µM) in assay [15]; greater than 64 µg/mL in [16]; 16 µg/mL (≈ 41.1 µM) in assay [17]; 2 µg/mL (≈ 5.13 µM) in assay [18]; 32 µg/mL (≈ 82.1 µM) in assay [19]. Moreover, the MIC in assay [20] came to 32 µg/mL (≈ 82.1 µM); in assay [21] it was 64 µg/mL (≈ 164 µM); in [22], 32 µg/mL (≈ 82.1 µM); in [23] it was 16 µg/mL (≈ 41.1 µM); in assay [24], 2 µg/mL (≈ 5.13 µM); in [25], 0.5 µg/mL (≈ 1.28 µM). Besides, the results for the MIC in [26], in assay [27] and in [28] were greater than 64 µg/mL, 16 µg/mL (≈ 41.1 µM) and 64 µg/mL (≈ 164 µM), respectively. In addition, the antifungal activity entry in [1] is “consistently active against most of the 41 of the filamentous fungi and yeasts”.
